Test results taken from patent US20120149708A1, “MODULATORS OF VIRAL TRANSCRIPTION, AND METHODS AND COMPOSITIONS THEREWITH” (George Mason University, priority 2010, published 2012).
Entries after “also recorded” stand apart in the source; their conditions may differ.

How the values were obtained:
Type in all cases: cell-based
HIV-1 LTR [1] = assay: Luciferase assay of Tat-dependent HIV-1 LTR transcription in TZM-bl cells; details: TZM-bl cells transfected with Tat, 50 nm, 48 hrs
Experimental: (§1) FIGS. 1 and 2 show screening results of CR8 derivatives on Tat-dependent transcription HIV-1 LTR. […] TZM-bl cells were transfected with 1 ug of Tat and treated the next day with DMSO, or the indicated CR8 derivative compounds at 50 nm. 48 hrs-post drug treatment, luciferase activity of the firefly luciferase was measured with the BrightGlo Luciferase Assay and luminescence was read from a 96 well plate on an EG&G Berthold luminometer. Assays were performed in triplicate, average and standard deviations are shown.
TZM-bl cells were transfected with pc-Tat (0.5 μg) using Attractene reagent (Qiagen) according to the manufacturers' instructions. Twenty-four hours later, cells were treated with DMSO or the indicated compound. Forty-eight hours-post drug treatment, luciferase activity of the firefly luciferase was measured with the BrightGlo Luciferase Assay (Promega).
These cells were brought into contact with 18 Formula I compounds.
Briefly, the addition of Tat protein enables activated transcription of HIV-1 promoter driving luciferase in these cells. Treated cells were assayed at 48 hrs after Tat transfection and drug treatment.

HIV-1 LTR [2] = assay: ChIP assay on HIV-1 LTR in TSA treated TZM-bl cells; details: TZM-bl after TSA treatment
Experimental: Primers specific for the HIV-1 LTR were used to amplify DNA that was precipitated with each antibody. Lane 1 indicates basal levels of repressive markers on the HIV-1 LTR.
TZM-bl cells were treated with TSA for 7 days and processed for ChIP. For ChIP, approximately 5×10^6 cells were used per IP. ChIP assays were performed as previously described. PCR was performed using 0.1 μM of HIV-1 LTR primers (Klase et al, 2007; Guendel et al, 2009; Easley et al, 2010).
To observe the effect of drug on heterochrmatin formation, the present inventor used a ChIP assay. Briefly, TZM-bl cells were treated with TSA (FIGS. 16 and 17), and then treated with CR8#13.

[3] = test system: HIV-1 infected and uninfected cells; assay: Classification of inhibitors by effect on viability of infected versus uninfected cells; details: high
Text: The inhibitors were classified into three categories: high, moderate or poor, according to their effect on cellular viability in both HIV-1 infected and uninfected cells. Among the compounds tested in this study, CR8, a purine analog bearing a 2-pyridyl group para to the phenyl ring position 6 of the purine was the most promising drug candidate that killed HIV-1 infected cells, while having little or no effect on the death of uninfected cells.

CEM cells (uninfected) = assay: Cell viability by trypan blue exclusion, 48 hours
Experimental: (§2) TZM-bl cell lines were grown in Dulbecco's modified Eagle's medium supplemented with fetal bovine serum (FBS) (10%, v/v), 2 mM L-glutamine, and antibiotics (penicillin 100 U/ml, streptomycin […]) (cDMEM). HCT116 WT and HCT116 Dicer−/−cell lines were grown in McCoy's medium supplemented with FBS (10%, v/v), 2mM L-glutamine, and antibiotics (penicillin 100 U/ml, streptomycin […]). CEM, ACH2, Jurkat and U937 cells were grown in RPMI 1640 supplemented with FBS, L-glutamine, and antibiotics (penicillin 100 U/ml, streptomycin […]). All cell lines were maintained at 37° C. in 5% (v/v) CO2.
(§3) ACH2 cells are infected with HIV-1; TZM-bl cells contain a stably-integrated HIV-1 LTR-Luciferase reporter; CEM, Jurkat, and U937 cells are uninfected. Transfections were carried out using Attractene (Qiagen) lipid reagent. Cells were cultured to confluence and pelleted at 4° C. for 15 min at 3,000 rpm. The cell pellets were washed twice with 25 ml of phosphate-buffered saline (PBS) with Ca2+ and Mg2+ (Quality Biological) and centrifuged once more. Cell pellets were resuspended in lysis buffer (50 mM Tris-HCl, pH 7.5, 120 mM NaCl, 5 mM EDTA, 0.5%, v/v, NP-40, 50 mM NaF, 0.2 mM Na3VO4, 1 mM DTT, one complete protease cocktail tablet/50 ml (Roche) and incubated on ice for 20 min, with gentle vortexing every 5 min. Cell lysates were transferred to eppendorf tubes and were centrifuged at 10,000 rpm for 10 min. Supernatants were transferred to a fresh tube where protein concentrations were determined using Bio-Rad protein assay (Bio-Rad, Hercules, Calif.).
(§4) In brief, the inhibition studies were carried out as follows. HIV-1 infected cells ACH2, J1.1, OM10.1, U1 and uninfected CEM, Jurkat T-cells, and U937 were cultured in media. The appropriate inhibitor was added at a concentration of 10 μM. Cells were treated for 48 hours and cell viability was determined using trypan blue exclusion method. Results of such a screen for 19 inhibitors is shown in Table 1 where percent dead cells are indicated each drug tested.
(§5) Again HIV-1 infected and uninfected cells were treated with eighteen Formula I compounds at a drug concentration of 50 nm. Forty-eight hours after treatment, cytotoxicity was determined by trypan blue dye exclusion. Percent inhibition was calculated after obtaining the cell density for each well of the tissue culture plate at the end of 48 hrs.

U937 cells (uninfected) = assay: Cell viability by trypan blue exclusion, 48 hours
Experimental: as §2, §3, §4, §5

[4] = test system: CIITA, IL-8, CAD, MCL-1, Cyclin D1, and PBX-1
Experimental: 293T cells were treated with three different concentrations of CR8#13 (20 nm, 50 nm, and 200 nm). Cells were processed 48 hrs-post treatment for RT-PCR. Effector cdk9 genes such as CIITA, IL-8, CAD, MCL-1, Cyclin D1, and PBX-1 were used in the RT-PCR.
For mRNA analysis of cdk9 related genes following drug treatments, total RNA was isolated from cells using Trizol (Invitrogen) according to the manufacturer's protocol. A total of 1 μg of RNA from the RNA fraction was treated with 0.25mg/ml DNase I for 60 min, followed by heat inactivation at 65° C. for 15 min. A total of 1 μg of total RNA was used to generate cDNA with the iScript cDNA Synthesis kit (Bio-Rad) using oligo-dT reverse primers.
A determination whether inhibition cdk9 by compounds of the present invention altered the responsiveness of cdk9 dependent cellular genes, was made by the present inventor by testing the effect of CR8#13 (BJFP1154), of viral transcriptional activity utilizing a known set of cellular and viral genes.

[5] = test system: infected ACH2, J1.1, OM10.1, U1 cells; assay: MTT assay, infected cells; details: 50 nm and 10 μM
Experimental: as §1
Quantitative MTT assays were performed (FIG. 2), to further validate the cell growth inhibitory activity of certain Formula I compounds. In this study, cultured, infected ACH2, J1.1, OM10.1, U1 and uninfected CEM, Jurkat T-cells, and U937 cells were brought in contact with Formula I compounds CR8, MRT-033, and BJFP1154 (CR8#13). Cell growth inhibition study was performed at two different concentrations of the inventive compounds, a low concentration of 50 nm, and high concentration of 10 μM.

Row | Compound | inhibition of HIV-1 LTR transcription (luciferase) (HIV-1 LTR [1]) | recruitment of HDAC1, Ago2, Suv39H1 to the HIV-1 promoter (ChIP) (HIV-1 LTR [2]) | Selectivity ([3]; 50 nM, moderate or poor) | Inhibition Percentage CEM (CEM cells (uninfected); 50 nM, 48 hrs) | Inhibition Percentage U937 (U937 cells (uninfected); 50 nM, 48 hrs) | transcription of cdk9 responsive genes [4] | cell killing of infected cells (MTT) [5] | Selectivity ([3]; 10 μM, moderate or poor by effect on viability of infected and uninfected cells) | inhibition at 10 µM (CEM cells (uninfected); Homo sapiens, CCRF-CEM, 48 h, 10 μM, 48 hours, read-out: % Inhibition (percent dead cells) CEM) | inhibition at 10 µM (U937 cells (uninfected); Homo sapiens, U-937, 10 μM, 48 hours, read-out: % Inhibition (percent dead cells) U937)
1 | CC(C)c1cnn2c(NCc3ccc(-c4ccccn4)cc3)nc(NC[C@H](O)CO)nc12.O=C(O)/C=C/C(=O)O [BJFP1154] | greatest transcriptional inhibition; also recorded: significant inhibition of HIV-1 transcription | re-recruitment of heterochromatin markers | Poor | − (1-5%) | − (1-5%) | did not inhibit transcription of genes that are cdk9 responsive | – | – | – | –
2 | CC[C@@H](CO)Nc1nc(NCc2ccc(-c3ccccn3)cc2)c2ncn(C(C)C)c2n1 [CR8] | – | – | – | – | – | – | significant cell killing of infected cells over uninfected cells | High | 25% | 50%
